Data on one compound can be found in article PMC9186351, “Discovery of N-quinazolinone-4-hydroxy-2-quinolone-3-carboxamides as DNA gyrase B-targeted antibacterial agents” (Journal of Enzyme Inhibition and Medicinal Chemistry, 2022).

Converted amounts (≈) assume the structure as drawn. Where two headings read alike, the source gives them in different places.

The target of data set [1] is T1, S. aureus GyrB (Staphylococcus aureus, UniProt P0A0K8).
T1 construct: purchased Inspiralis Ltd., Norwich, UK
T1 sequence (P0A0K8 whole entry): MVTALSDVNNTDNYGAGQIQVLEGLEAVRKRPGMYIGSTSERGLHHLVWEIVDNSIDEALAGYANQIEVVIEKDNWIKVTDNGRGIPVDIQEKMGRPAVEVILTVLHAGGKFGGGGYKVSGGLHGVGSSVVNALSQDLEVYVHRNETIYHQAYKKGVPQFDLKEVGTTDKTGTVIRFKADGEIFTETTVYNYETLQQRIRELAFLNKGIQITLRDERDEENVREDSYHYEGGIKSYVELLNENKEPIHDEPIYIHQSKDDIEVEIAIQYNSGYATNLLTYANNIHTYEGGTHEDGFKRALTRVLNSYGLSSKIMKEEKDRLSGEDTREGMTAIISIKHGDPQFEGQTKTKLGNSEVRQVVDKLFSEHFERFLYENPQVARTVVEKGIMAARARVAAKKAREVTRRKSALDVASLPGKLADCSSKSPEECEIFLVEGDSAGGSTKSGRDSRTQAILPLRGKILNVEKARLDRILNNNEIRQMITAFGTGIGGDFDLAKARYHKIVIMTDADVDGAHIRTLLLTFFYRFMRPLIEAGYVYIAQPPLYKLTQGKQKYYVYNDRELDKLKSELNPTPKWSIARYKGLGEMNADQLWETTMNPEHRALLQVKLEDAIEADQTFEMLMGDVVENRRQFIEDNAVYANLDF
T1 sequence (P20831 whole entry, further chain): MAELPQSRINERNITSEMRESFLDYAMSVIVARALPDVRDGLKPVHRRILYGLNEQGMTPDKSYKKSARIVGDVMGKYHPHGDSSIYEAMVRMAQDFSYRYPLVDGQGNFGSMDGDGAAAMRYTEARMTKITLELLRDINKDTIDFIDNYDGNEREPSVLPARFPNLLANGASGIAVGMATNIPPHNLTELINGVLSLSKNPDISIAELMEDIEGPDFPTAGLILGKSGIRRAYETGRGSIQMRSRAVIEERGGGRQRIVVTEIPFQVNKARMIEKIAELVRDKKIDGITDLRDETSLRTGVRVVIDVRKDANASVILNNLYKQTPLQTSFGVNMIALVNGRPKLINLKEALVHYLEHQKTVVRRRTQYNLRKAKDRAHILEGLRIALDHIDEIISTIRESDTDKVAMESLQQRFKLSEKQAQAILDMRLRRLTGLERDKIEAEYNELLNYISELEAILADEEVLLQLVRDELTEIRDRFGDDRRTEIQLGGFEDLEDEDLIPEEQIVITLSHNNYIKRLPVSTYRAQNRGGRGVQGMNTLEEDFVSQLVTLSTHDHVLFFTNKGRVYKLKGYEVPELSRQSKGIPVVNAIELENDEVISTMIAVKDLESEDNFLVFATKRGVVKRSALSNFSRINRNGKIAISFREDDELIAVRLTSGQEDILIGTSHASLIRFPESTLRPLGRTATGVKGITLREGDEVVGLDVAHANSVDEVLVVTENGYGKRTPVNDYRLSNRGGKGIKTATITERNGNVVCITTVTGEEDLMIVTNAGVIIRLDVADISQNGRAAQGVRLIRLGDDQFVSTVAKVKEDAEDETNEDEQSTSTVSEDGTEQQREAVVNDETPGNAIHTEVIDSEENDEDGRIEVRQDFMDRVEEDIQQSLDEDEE
Nature of the data set: S. aureus GyrB (Gyrase ATPase) inhibition assay, ADP-Glo. It counts as biochemical. As to the method:
The IC50 values for S. aureus GyrB were determined according to our previously reported protocol.[16] For this assay, the reaction mixture (10 μL) consisted of 5 nM S. aureus Gyrase (Inspiralis Ltd., Norwich, UK), assay buffer [40 mM HEPES-KOH (pH 7.6), 10 mM magnesium acetate, 10 mM dithiothreitol, 50 g/L BSA, and 500 mM potassium glutamate], the test compound (0.01–100 μM), 1% DMSO, 10 nM linear pBR322 DNA, and […]. The target compound was dissolved in DMSO (10 mM). A series of dilutions (0.1–1000 μM) were prepared from the stock solution with the assay buffer and DMSO. The dilutions (1 μL) were respectively added to the PCR tubes along with the buffer (7 μL), the linear pBR322 DNA (0.5 μL), S. aureus Gyrase (0.5 μL), and ATP (1 μL). The PCR tubes were sealed and incubated at 37 °C for 30 min. The ADP-Glo reagent (40 μL) was added to stop the reaction and use up the remaining ATP.
The detection reagent (50 μL) was then added and mixed. After 5 min, the mixture in each PCR tube was put in the well of a 96-well plate and its luminescence was measured by the BioTek Synergy 2 microplate reader. The activity values (%) of S. aureus Gyrase treated by the test compound at different concentrations were determined based on the luminescence. GraphPad Prism version 5 software (GraphPad Software Inc., La Jolla, CA) was used to calculate the IC50 values.
(In ADP-Glo the light output rises with the ADP produced.)

The subject of data set [2] is methicillin-sensitive S. aureus (MSSA). Nature of the data set: MIC by broth microdilution, MSSA isolates. As to conditions: Staphylococcus aureus. It counts as cell-based. On the procedure: (§1) All of the bacterial strains used in this study were obtained from the Collection Centre of Pathogen Microorganism of Chinese Academy of Medical Sciences (CAMS-CCPM-A) in China. All of the isolates were stored at −80 °C and streaked on tryptic soy agar (TSA) plates to obtain overnight cultures. The MICs of the test compounds were determined by the broth microdilution method in accordance with the Clinical and Laboratory Standards Institute (CLSI) guidelines.[20] Cation-adjusted Mueller-Hinton broth (CAMHB) was used as the growth medium for MIC assays. Briefly, 100 μL of serially diluted compounds (starting concentrations were 64 μg/mL) in CAMH broth were added to the wells of 96-well microtiter plates. Then, 10 µL of 5 × 10^6 CFU/mL bacterial culture was added to each well. […] The MIC was defined as the lowest concentration of a compound that inhibited visual growth of the bacteria. Vancomycin was set as the positive control for this assay.
(In general: Broth dilution looks for growth in wells or tubes with falling amounts of substance.)

Data set [3] has as its system vancomycin intermediate resistant S. aureus (VISA). Nature of the data set: MIC by broth microdilution, VISA strains. Format: cell-based. As to conditions: Staphylococcus aureus, read-out: MIC. As to the method: as §1
Data set [4] can be described thus: Cytotoxicity, SRB assay, HepG2. It counts as cell-based, human. As to conditions: human, HepG2 cells, 72-h treatment (footnote), read-out: In vitro cytotoxicity CC50 (μM, mean ± SD). As to the method: (§2) Cytotoxicity in terms of CC50 was determined by the SRB assay according to the protocol described in our previous publication.[16] Briefly, human HUVECs or HepG2 cells were seeded in the wells of 96-well plates at a concentration of 1 × 10^5 cells per well and incubated at 37 °C for 24 h. […] The cells were fixed with 10% trichloroacetic acid (w/v) at 4 °C for 1 h, washed five times with distilled water, and stained with 0.4% SRB solution at room temperature for another 20 min. The cells were then washed five times with 1% acetic acid and air-dried. The protein-bound dye was dissolved in 10 mM Tris-base solution and shaken for 5 min. The optical density (OD) was measured at 540 nm using a microplate reader to estimate the cell viability (%). With the viability values (%) of the cells treated by the compound at different concentrations as input, the CC50 value was determined by the non-linear regression with normalised dose-response fit implemented in GraphPad Prism version 5 software (GraphPad Software Inc., La Jolla, CA). The experiment was performed in duplicate, and paclitaxel was used as the positive drug for this assay.
A general note: In SRB staining, fixed cells bind dye roughly in proportion to their protein.

For data set [5], the system named is HepG2 cells. In words: Cytotoxicity, SRB assay, HepG2. As to conditions: 72-h treatment (footnote), read-out: In vitro cytotoxicity CC50 (μM, mean ± SD). Format: cell-based, human. On the procedure:
as §2

The nature of data set [6]: in vitro. Format: in vitro ADME, mouse. As to conditions: mouse, plasma. As to the method:
The mouse plasma was purchased from Charles River and stored at −20 °C. The stock solution of the test compound dissolved in DMSO (50 mM) was prepared and diluted to obtain a working solution at the concentration of 0.2 mM. The working solution of the control compound, i.e. propantheline, was similarly prepared (0.2 mM). Terfenadine (5 ng/mL) and tolbutamide (10 ng/mL) dissolved in acetonitrile were used as two quenching solutions.
The mouse plasma was pre-warmed at 37 °C for 15 min. The working solution of the test/control compound (2 µL) was then added to the mouse plasma (398 µL) in a 96-well plate. Next, 30 µL of the reaction mixture was sampled and moved to 300 µL of quenching solutions at each time point: 0, 5, 15, 30, 60, and 120 min for the control compound and 0, 15, 30, 60, and 120 min for the test compound. When the sampling was done, each sample was centrifuged at 4000 rpm at 4 °C for 15 min. Then, 100 µL of the supernatant was removed and mixed with 100 µL of distilled water for LC-MS/MS analysis with Shimadzu HPLC system and the AB Sciex API 4000 QTRAP instrument. The remaining compound (%) after incubation in plasma versus the incubation time was plotted. The half-life (t1/2) value of the compound was determined via linear regression from the plot.

The term IC50 denotes the concentration at which inhibition is half-maximal. As usually defined, the inhibition is the relative decrease from the control value, in per cent. Usually MIC stands for the lowest concentration that inhibits growth of the organism. One may read the CC50 as the concentration that lowers cell viability or growth by half. Broadly, the half-life is the time in which the quantity being followed falls by half. Read a high half-life as slow loss.

For the compound `CCCCCc1nc2ccccc2c(=O)n1NC(=O)c1c(O)c2ccccc2n(CC)c1=O` [f1, N-(4-oxo-2-pentylquinazolin-3(4H)-yl)-1-ethyl-4-hydroxy-2-oxo-1,2-dihydroquinoline-3-carboxamide], the IC50 in data set [1] (IC50 for GyrB (µM, mean ± SD), S. aureus Gyrase ATPase inhibition, average of duplicates) stood at 1.21 ± 0.13 µM. In addition, the inhibition at 10 µM in data set [1] (read-out: GyrB inhibition rate (%) at 10 μM) amounted to 72%. For the same compound, the MIC in data set [2] (ATCC 29213 / BAA-1708 / BAA-976 / MSSA, ATCC 29213, 15, 18-3, BAA976, BAA1708, span over isolates, read-out: MIC over the five MSSA isolates) was 4 to 8 µg/mL (≈ 8.96 to 17.9 µM); in data set [2] (ATCC 29213 / MSSA, MSSA ATCC 29213, read-out: MIC), 4 µg/mL (≈ 8.96 µM); in data set [2] (BAA-976 / MSSA, MSSA BAA976, read-out: MIC), 4 µg/mL (≈ 8.96 µM); in data set [2] (BAA-1708 / MSSA, MSSA BAA1708, read-out: MIC), 4 µg/mL (≈ 8.96 µM); in data set [2] (MSSA, MSSA 15, read-out: MIC), 8 µg/mL (≈ 17.9 µM); in data set [2] (MSSA, MSSA 18-3, read-out: MIC), 4 µg/mL (≈ 8.96 µM). Besides, the MIC came to 8 µg/mL (≈ 17.9 µM) in data set [3] (ATCC 700699 / VISA, VISA ATCC 700699); 4 µg/mL (≈ 8.96 µM) in data set [3] (VISA, VISA HIP 5827); 16 µg/mL (≈ 35.8 µM) in data set [3] (VISA, VISA HIP 5836). Besides, the CC50 at 72 h in data set [4] is roughly 50 µM. Besides, in data set [5], the CC50 came out at 49.6 ± 0.2 µM. In data set [6], this compound displayed a half-life at 1 µM greater than 373 min.
